Data: US20120122860A1, “SOLID FORMS OF SULFONAMIDES AND AMINO ACIDS” (Plexxikon, Inc., priority 2009, published 2012)

How the values were obtained:
[1] = target: Kdr (Homo sapiens, UniProt P35968); assay: Kinase activity assay, Kdr
[2] = target: Fms (Homo sapiens, UniProt P07333); assay: Kinase activity assay, Fms
[3] = target: Src (Homo sapiens, UniProt P12931); assay: Kinase activity assay, Src
[4] = target: B-Raf V600E (Homo sapiens, UniProt P15056, V600E); assay: Kinase activity assay, B-Raf V600E; assay type: biochemical; conditions: read-out: activity toward kinase B-Raf V600E, IC50
Sequence of B-Raf V600E (P15056 whole entry V600E): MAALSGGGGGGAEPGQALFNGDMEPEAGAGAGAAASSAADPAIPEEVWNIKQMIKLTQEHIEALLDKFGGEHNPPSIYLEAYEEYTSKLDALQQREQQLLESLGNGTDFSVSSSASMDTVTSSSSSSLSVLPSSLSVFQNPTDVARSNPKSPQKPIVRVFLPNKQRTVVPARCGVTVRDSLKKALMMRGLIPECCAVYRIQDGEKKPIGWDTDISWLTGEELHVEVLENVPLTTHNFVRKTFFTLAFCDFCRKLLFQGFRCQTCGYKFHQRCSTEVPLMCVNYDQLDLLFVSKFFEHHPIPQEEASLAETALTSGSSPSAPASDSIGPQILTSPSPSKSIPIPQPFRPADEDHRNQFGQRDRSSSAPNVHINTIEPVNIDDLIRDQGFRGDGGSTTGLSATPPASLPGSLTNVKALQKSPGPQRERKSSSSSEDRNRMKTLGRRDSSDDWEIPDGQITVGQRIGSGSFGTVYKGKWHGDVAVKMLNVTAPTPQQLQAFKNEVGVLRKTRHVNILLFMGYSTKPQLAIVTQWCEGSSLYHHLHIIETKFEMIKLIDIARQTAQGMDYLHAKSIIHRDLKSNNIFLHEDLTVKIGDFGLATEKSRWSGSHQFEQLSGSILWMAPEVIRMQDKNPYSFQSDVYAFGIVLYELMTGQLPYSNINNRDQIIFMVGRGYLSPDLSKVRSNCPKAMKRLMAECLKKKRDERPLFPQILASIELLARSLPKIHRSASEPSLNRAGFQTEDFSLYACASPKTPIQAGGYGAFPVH

[5] = target: Btk (Homo sapiens, UniProt Q06187); assay: Kinase activity assay, Btk
Sequence of Btk (Q06187 whole entry): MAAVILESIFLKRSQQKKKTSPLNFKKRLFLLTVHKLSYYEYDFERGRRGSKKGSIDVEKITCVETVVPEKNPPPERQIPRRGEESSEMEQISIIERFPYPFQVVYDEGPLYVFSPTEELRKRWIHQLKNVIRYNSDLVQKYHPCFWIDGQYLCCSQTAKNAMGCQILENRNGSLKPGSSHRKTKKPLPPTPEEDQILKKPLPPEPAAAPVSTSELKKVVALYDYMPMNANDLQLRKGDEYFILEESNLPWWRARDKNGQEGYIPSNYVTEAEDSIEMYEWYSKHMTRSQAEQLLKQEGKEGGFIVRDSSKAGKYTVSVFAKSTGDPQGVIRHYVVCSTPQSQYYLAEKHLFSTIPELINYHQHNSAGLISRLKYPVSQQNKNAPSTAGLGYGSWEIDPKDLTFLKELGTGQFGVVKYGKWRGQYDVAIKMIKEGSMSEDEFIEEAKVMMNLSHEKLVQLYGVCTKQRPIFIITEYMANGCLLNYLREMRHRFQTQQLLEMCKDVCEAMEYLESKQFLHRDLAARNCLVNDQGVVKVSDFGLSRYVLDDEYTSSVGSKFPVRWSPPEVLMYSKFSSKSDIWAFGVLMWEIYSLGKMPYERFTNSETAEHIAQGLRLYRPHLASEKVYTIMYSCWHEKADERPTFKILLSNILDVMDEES

[6] = target: Kit (Homo sapiens, UniProt P10721); assay: Kinase activity assay, Kit
[7] = target: Flt1 (Homo sapiens, UniProt P17948); assay: Kinase activity assay, Flt1
Sequence of Flt1 (P17948 27-1338): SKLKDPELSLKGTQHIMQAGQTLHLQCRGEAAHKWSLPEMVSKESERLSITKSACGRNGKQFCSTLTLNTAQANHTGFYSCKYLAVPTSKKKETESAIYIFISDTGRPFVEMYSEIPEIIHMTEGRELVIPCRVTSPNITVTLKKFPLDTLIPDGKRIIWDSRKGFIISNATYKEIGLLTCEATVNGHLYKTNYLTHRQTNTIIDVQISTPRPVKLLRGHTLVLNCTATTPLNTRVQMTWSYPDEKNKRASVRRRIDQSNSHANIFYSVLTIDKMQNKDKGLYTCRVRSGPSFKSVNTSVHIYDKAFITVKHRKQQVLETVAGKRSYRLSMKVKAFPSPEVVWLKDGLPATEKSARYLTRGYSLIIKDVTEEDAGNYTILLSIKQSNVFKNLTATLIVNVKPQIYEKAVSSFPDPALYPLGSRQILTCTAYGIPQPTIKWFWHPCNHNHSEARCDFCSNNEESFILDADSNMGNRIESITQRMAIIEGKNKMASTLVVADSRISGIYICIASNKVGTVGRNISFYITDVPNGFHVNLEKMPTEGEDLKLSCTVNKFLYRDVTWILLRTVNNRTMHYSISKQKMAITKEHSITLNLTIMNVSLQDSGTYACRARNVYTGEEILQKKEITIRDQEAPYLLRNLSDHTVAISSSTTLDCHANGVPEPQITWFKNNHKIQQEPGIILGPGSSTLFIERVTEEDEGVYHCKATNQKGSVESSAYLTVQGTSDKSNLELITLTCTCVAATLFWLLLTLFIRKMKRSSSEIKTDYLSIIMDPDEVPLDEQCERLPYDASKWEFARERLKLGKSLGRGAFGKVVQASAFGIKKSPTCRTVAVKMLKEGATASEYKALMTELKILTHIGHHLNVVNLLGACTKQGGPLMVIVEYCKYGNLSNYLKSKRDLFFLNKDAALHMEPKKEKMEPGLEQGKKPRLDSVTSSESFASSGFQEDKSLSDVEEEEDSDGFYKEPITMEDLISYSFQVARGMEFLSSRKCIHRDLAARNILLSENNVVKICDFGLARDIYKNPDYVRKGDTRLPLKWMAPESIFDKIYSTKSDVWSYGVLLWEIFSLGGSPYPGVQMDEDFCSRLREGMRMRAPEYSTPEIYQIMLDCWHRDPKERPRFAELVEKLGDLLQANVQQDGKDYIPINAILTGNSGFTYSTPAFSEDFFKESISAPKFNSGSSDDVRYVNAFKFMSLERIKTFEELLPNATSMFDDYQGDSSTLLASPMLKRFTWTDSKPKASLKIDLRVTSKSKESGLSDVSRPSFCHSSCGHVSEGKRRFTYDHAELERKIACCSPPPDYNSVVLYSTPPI

[8] = target: B-Raf (Homo sapiens, UniProt P15056); assay: Kinase activity assay, B-Raf; assay type: biochemical; conditions: read-out: activity toward kinase B-Raf, IC50
Sequence of B-Raf (P15056 whole entry): as the sequence (P15056 whole entry V600E) above, with E600V counted along it

[9] = target: C-Raf (Homo sapiens, UniProt P04049); assay: Kinase activity assay, C-Raf
[10] = target: T1, TEC (Homo sapiens, UniProt P42680); assay: Kinase activity assay, TEC
T1 sequence (P42680 1-631): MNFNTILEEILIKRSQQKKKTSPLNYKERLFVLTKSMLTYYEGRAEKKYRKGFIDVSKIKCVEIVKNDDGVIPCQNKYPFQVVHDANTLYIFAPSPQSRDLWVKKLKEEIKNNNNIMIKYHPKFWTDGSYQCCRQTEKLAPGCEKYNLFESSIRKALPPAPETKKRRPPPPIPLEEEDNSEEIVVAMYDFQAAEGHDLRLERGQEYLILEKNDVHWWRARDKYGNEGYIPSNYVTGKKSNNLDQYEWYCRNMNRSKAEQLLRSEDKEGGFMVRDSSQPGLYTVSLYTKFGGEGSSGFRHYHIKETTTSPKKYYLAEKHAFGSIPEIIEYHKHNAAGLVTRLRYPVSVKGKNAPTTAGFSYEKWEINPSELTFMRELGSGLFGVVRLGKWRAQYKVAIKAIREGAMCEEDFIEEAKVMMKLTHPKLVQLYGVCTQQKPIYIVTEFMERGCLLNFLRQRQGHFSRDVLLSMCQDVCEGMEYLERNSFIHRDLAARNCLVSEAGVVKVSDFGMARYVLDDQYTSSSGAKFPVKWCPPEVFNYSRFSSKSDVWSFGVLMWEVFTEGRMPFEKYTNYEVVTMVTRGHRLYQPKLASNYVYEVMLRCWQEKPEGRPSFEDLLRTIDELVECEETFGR

[11] = target: MAP4K4 (Homo sapiens, UniProt O95819); assay: Kinase activity assay, MAP4K4
[12] = target: T2, A-Raf (Homo sapiens, UniProt P10398); assay: Kinase activity assay, A-Raf
T2 sequence (P10398 1-606): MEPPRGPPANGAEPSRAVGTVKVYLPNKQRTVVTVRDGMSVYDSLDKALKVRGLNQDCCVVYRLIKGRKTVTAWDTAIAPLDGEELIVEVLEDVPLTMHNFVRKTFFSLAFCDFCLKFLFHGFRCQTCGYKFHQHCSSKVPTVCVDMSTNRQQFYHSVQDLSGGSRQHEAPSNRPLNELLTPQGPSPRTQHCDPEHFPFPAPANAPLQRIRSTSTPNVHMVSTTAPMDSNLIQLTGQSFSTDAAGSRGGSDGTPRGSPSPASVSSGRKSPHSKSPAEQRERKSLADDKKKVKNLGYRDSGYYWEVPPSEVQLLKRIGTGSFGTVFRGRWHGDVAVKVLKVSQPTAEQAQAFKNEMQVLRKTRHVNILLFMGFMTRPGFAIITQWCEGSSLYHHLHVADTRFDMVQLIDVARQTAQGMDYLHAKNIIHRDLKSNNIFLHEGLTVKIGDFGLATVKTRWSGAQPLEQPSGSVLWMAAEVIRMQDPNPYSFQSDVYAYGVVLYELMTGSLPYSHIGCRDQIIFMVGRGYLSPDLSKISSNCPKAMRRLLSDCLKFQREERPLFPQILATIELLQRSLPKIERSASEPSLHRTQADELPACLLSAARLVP

Measured: IC50

Sequence of Fms (P07333 20-972): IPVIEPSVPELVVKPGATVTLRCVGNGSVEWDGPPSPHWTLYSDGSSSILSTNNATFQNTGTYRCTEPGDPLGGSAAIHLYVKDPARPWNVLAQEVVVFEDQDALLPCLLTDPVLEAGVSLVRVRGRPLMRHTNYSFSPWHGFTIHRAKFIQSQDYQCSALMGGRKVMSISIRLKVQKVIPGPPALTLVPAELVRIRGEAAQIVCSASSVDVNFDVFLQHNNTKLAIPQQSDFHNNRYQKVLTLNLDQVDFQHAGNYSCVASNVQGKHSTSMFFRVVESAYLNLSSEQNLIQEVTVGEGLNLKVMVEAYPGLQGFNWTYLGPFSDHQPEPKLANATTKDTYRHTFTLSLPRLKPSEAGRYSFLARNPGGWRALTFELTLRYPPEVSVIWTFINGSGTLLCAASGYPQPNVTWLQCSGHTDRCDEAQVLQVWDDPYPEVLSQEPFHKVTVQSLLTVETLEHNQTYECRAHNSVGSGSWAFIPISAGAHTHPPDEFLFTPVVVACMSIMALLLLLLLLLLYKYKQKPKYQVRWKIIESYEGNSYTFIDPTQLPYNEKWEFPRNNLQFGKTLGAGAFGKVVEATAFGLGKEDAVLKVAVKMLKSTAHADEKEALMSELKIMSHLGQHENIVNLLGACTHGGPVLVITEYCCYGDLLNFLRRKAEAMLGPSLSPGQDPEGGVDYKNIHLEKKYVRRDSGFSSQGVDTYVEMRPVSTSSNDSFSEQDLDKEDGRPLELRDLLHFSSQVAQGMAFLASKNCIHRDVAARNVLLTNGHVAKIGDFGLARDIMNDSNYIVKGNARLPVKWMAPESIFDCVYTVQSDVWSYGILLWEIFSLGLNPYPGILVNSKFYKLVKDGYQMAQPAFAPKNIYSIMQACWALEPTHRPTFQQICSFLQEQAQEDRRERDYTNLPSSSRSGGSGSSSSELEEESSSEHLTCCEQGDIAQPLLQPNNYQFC
Sequence of Kdr (P35968 20-1356): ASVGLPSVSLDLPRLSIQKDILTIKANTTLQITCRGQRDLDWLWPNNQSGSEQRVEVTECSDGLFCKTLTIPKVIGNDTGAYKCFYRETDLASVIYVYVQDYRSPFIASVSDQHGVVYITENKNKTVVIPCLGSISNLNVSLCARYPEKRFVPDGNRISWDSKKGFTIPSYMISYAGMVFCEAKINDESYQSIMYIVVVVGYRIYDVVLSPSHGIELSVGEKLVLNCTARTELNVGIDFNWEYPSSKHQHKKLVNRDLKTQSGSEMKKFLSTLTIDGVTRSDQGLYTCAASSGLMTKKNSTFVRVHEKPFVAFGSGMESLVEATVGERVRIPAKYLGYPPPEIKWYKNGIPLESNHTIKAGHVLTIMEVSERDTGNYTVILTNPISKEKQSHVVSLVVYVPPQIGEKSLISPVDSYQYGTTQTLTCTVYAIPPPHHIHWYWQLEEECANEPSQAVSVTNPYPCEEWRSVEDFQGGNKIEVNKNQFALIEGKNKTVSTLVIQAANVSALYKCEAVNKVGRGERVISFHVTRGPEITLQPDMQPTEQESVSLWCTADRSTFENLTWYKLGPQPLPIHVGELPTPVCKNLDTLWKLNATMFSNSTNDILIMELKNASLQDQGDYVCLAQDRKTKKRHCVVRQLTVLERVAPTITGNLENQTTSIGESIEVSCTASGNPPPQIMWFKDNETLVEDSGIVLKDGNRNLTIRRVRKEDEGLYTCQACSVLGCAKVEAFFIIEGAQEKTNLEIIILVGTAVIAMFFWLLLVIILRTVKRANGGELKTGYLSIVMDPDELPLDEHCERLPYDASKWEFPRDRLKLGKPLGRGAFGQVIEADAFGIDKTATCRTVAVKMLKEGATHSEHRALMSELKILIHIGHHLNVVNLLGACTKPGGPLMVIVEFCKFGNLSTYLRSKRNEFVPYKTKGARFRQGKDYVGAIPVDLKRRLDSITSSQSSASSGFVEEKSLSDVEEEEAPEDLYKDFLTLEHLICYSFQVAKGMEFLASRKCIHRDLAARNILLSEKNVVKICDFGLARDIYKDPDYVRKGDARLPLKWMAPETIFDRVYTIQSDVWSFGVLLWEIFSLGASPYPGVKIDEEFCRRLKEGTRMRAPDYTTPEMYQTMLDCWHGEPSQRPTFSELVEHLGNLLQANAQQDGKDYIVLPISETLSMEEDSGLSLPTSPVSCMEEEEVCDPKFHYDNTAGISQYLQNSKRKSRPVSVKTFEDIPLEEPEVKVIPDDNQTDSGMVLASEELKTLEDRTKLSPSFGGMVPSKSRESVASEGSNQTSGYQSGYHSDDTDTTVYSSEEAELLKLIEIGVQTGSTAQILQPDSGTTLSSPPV

Cn1cc(-c2cnc3[nH]cc(C(=O)c4cc(NS(=O)(=O)c5ccc(F)cc5)ccc4F)c3c2)cn1 [P-2100, 4-Fluoro-N-{4-fluoro-3-[5-(1-methyl-1H-pyrazol-4-yl)-1H-pyrrolo[2,3-b]pyridine-3-carbonyl]-phenyl}-benzenesulfonamide]
≤ 10 µM: [1] | [2] | [3] | [4] | [5] | [6] | [7]

CCCS(=O)(=O)Nc1ccc(F)c(C(=O)c2c[nH]c3ncc(-c4ccc(C)nc4)cc23)c1F [P-2213, Propane-1-sulfonic acid {2,4-difluoro-3-[5-(6-methyl-pyridin-3-yl)-1H-pyrrolo[2,3-b]pyridine-3-carbonyl]-phenyl}-amide]
not listed: [5] | [10] | [11] | [12]
≤ 10 µM: all other assays above

CCCCS(=O)(=O)Nc1ccc(F)c(C(=O)c2c[nH]c3ncc(-c4cnn(C)c4)cc23)c1Cl [P-2430, Butane-1-sulfonic acid {2-chloro-4-fluoro-3-[5-(1-methyl-1H-pyrazol-4-yl)-1H-pyrrolo[2,3-b]pyridine-3-carbonyl]-phenyl}-amide]
not listed: [3] | [5] | [12]
≤ 10 µM: all other assays above

CCCS(=O)(=O)Nc1ccc(F)c(C(=O)c2c[nH]c3ncc(-c4ccc(OCCCN(CC)CC)nc4)cc23)c1F [P-2216, Propane-1-sulfonic acid (3-{5-[6-(3-diethylamino-propoxy)-pyridin-3-yl]-1H-pyrrolo[2,3-b]pyridine-3-carbonyl}-2,4-difluoro-phenyl)-amide]
not listed: [5] | [10] | [11] | [12]
≤ 10 µM: all other assays above

CCCS(=O)(=O)Nc1ccc(F)c(C(=O)c2c[nH]c3ncc(-c4cnc(OC)nc4OC)cc23)c1F [P-2199, Propane-1-sulfonic acid {3-[5-(2,4-dimethoxy-pyrimidin-5-yl)-1H-pyrrolo[2,3-b]pyridine-3-carbonyl]-2,4-difluoro-phenyl}-amide]
not listed: [3] | [12]
≤ 10 µM: all other assays above

CCCS(=O)(=O)Nc1ccc(F)c(C(=O)c2c[nH]c3ncc(-c4cnc(N(C)C)nc4)cc23)c1F [P-2196, Propane-1-sulfonic acid {3-[5-(2-dimethylamino-pyrimidin-5-yl)-1H-pyrrolo[2,3-b]pyridine-3-carbonyl]-2,4-difluoro-phenyl}-amide]
≤ 10 µM: [1] | [3] | [4] | [12] | [8] | [9] | [7]

CCCS(=O)(=O)Nc1ccc(F)c(C(=O)c2c[nH]c3nccc(OC)c23)c1F [P-2210, Propane-1-sulfonic acid [2,4-difluoro-3-(4-methoxy-1H-pyrrolo[2,3-b]pyridine-3-carbonyl)-phenyl]-amide]
≤ 10 µM: [1] | [3] | [4] | [12] | [8] | [9] | [7]

Cn1cc(-c2cnc3[nH]cc(C(=O)c4c(F)ccc(NS(=O)(=O)c5cccc(OC(F)F)c5)c4Cl)c3c2)cn1 [P-2099, N-{2-Chloro-4-fluoro-3-[5-(1-methyl-1H-pyrazol-4-yl)-1H-pyrrolo[2,3-b]pyridine-3-carbonyl]-phenyl}-3-difluoromethoxy-benzenesulfonamide]
not listed: [3] | [9] | [12]
≤ 10 µM: all other assays above

CC(C)CS(=O)(=O)Nc1ccc(F)c(C(=O)c2c[nH]c3ncc(-c4cnn(C)c4)cc23)c1F [P-2299, 2-Methyl-propane-1-sulfonic acid {2,4-difluoro-3-[5-(1-methyl-1H-pyrazol-4-yl)-1H-pyrrolo[2,3-b]pyridine-3-carbonyl]-phenyl}-amide]
not listed: [9] | [11] | [12]
≤ 10 µM: all other assays above

Cn1cc(-c2cnc3[nH]cc(C(=O)c4cccc(NS(=O)(=O)C5CCCCC5)c4)c3c2)cn1 [P-2457, Cyclohexanesulfonic acid {3-[5-(1-methyl-1H-pyrazol-4-yl)-1H-pyrrolo[2,3-b]pyridine-3-carbonyl]-phenyl}-amide]
not listed: [8] | [9] | [12]
≤ 10 µM: all other assays above

CCCS(=O)(=O)Nc1ccc(F)c(C(=O)c2c[nH]c3ncc(-c4ccc(OCCO)nc4)cc23)c1F [P-2215, Propane-1-sulfonic acid (2,4-difluoro-3-{5-[6-(2-hydroxy-ethoxy)-pyridin-3-yl]-1H-pyrrolo[2,3-b]pyridine-3-carbonyl}-phenyl)-amide]
not listed: [5] | [10] | [12]
≤ 10 µM: all other assays above
